These compounds were tested against T1, human FASN (Homo sapiens, UniProt P49327) (assay: FASN NADPH Consumption Assay). Details: human FASN purified from SKBR3 cells; starred symbols.
T1 construct: was purified from SKBR3 cells using procedures modified from those in Jayakumar et al; endogenous in cells; host or cells: SKBR3 human breast cancer cells (ATCC); Endogenous enzyme purified by ammonium sulfate precipitation and a mono Q column
Type: biochemical
Outline: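 Native human FASN purified from SKBR3 cells (60 nM final) preincubated 30 min at 37 °C with compound (2.4 nM–40 μM, 4% DMSO) in pH 7.0 phosphate buffer with 5 mM DTT. Reaction started with 0.2 mM NADPH, 50 μM butyryl-CoA, 0.5 mM malonyl-CoA; NADPH consumption followed kinetically by fluorescence (ex 340/em 460 nm); IC50 from logistic fit.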

T1 sequence (P49327 whole entry): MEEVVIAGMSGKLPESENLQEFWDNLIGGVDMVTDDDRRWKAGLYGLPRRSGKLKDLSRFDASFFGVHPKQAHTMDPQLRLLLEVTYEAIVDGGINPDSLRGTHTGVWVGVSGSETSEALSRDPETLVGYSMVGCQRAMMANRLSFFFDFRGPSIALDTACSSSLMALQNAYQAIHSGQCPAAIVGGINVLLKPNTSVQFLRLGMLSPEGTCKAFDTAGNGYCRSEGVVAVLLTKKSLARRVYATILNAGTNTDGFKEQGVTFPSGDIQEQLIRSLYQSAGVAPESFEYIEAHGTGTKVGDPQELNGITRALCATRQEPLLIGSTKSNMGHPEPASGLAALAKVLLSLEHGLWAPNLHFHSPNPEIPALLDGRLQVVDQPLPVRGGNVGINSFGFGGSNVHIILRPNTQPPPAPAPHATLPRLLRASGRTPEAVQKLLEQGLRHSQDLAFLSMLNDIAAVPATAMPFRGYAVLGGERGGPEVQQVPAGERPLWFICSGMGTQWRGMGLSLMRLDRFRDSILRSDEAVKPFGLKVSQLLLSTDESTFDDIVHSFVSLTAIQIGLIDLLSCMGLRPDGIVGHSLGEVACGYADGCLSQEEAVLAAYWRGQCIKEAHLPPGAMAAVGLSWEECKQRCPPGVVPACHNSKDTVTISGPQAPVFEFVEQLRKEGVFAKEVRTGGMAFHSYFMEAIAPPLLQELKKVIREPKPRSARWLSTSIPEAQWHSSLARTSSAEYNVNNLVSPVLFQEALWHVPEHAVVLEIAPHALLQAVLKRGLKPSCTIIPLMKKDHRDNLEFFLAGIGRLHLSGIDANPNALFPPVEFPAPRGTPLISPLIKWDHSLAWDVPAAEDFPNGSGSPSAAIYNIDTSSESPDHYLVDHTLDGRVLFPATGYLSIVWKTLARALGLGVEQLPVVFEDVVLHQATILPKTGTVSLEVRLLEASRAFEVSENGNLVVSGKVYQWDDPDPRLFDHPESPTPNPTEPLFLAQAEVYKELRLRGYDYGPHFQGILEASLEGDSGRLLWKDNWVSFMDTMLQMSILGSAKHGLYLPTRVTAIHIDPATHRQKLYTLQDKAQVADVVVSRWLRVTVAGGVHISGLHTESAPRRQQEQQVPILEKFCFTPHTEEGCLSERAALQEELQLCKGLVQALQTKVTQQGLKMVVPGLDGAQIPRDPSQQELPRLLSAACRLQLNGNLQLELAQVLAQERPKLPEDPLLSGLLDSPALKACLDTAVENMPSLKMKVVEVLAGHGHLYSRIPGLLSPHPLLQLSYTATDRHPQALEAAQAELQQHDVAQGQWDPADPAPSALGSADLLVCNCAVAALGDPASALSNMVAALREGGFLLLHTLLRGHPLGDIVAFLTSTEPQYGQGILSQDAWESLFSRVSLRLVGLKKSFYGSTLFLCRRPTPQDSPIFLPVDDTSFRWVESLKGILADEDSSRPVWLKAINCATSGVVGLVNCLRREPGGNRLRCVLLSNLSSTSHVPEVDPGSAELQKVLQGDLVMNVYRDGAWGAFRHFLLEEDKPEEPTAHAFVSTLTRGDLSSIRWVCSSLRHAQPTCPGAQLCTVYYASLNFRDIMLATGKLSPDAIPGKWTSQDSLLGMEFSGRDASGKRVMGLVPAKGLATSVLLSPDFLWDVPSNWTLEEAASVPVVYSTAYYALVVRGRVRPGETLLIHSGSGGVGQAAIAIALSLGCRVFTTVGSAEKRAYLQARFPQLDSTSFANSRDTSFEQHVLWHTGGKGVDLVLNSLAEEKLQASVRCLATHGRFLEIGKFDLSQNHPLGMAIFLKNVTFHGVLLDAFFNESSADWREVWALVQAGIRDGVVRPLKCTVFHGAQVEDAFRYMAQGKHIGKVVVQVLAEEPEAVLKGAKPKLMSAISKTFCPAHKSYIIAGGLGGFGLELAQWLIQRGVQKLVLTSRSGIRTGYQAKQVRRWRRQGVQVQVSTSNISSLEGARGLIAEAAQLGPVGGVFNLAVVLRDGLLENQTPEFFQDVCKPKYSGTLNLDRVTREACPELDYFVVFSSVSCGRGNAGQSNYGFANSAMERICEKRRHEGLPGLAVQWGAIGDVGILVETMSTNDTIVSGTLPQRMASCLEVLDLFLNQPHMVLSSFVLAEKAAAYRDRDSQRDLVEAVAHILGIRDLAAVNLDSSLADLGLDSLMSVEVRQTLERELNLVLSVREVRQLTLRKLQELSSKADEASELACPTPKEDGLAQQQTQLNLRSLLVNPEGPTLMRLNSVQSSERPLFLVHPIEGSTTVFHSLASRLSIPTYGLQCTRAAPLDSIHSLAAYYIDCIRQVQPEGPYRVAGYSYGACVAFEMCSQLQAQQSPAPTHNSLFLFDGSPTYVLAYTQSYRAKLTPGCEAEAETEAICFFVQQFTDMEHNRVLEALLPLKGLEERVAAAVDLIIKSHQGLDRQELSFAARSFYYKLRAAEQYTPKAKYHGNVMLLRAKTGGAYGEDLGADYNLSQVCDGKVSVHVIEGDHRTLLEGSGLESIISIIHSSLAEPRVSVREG

SMILES	IC50
CCN(C(=O)n1nnn(-c2cc(Cl)ccc2Cl)c1=O)C1CCCCC1	1000 to 10000 nM
CCN(C(=O)n1nnn(-c2c(Cl)cccc2C(F)(F)F)c1=O)C1CCCCC1	> 10000 nM
CCOC(=O)N1CCCC(N(CC)C(=O)n2nnn(-c3c(Cl)cccc3Cl)c2=O)C1 (centres unmarked)	1000 to 10000 nM
CN(C)N(C(=O)n1nnn(-c2ccccc2Br)c1=O)C1=CCCCC1	250 to 1000 nM
CN(C(=O)n1nnn(-c2c(F)cccc2F)c1=O)c1ccc(Br)cc1	60 to 250 nM
CCN(C(=O)n1nnn(-c2ccccc2C)c1=O)C1CCCCC1	1000 to 10000 nM
CCN(C(=O)n1nnn(-c2c(F)cccc2C#Cc2ccccc2C)c1=O)c1ccccc1	60 to 250 nM
COc1cccc(F)c1-n1nnn(C(=O)N(C2CCCCC2)C2CCCCC2)c1=O	1000 to 10000 nM
CCN(C(=O)n1nnn(-c2c(Cl)cc(Cl)cc2Cl)c1=O)C1CCCCC1	1000 to 10000 nM
CCN(C(=O)n1nnn(-c2ccccc2Br)c1=O)C1CCCCC1	1000 to 10000 nM
O=C(O)c1ccc2c(c1)CCCN2C(=O)n1nnn(-c2ccccc2)c1=O	60 to 250 nM
CC(C)(C)OC(=O)Nc1ccc2c(c1)CCCN2C(=O)n1nnn(-c2c(F)cccc2F)c1=O	60 to 250 nM
CCN(C(=O)n1nnn(-c2c(C)cccc2Cl)c1=O)C1CCCCC1	1000 to 10000 nM
CCN(C(=O)n1nnn(-c2ccc(N(C)C)cc2)c1=O)C1CCCCC1	1000 to 10000 nM
CCN(C(=O)n1nnn(-c2c(F)cccc2F)c1=O)c1ccc(Cl)cc1Cl	60 to 250 nM
O=C(NC1CCCCC1)n1nnn(-c2ccccc2)c1=O	> 10000 nM
O=C(N1Cc2ccccc2Cc2ccccc21)n1nnn(-c2c(F)cccc2F)c1=O	60 to 250 nM
CCN(C(=O)n1nnn(-c2c(Cl)cccc2Cl)c1=O)c1ccc(NS(=O)(=O)C(F)(F)F)cc1	60 to 250 nM
CCN(C(=O)n1nnn(-c2c(Cl)cccc2Cl)c1=O)C1CCN(S(C)(=O)=O)CC1	1000 to 10000 nM
O=C(C1CCCN(C(=O)n2nnn(-c3c(Cl)cccc3Cl)c2=O)C1)N1CCCCC1 (centres unmarked)	1000 to 10000 nM
CCN(C(=O)n1nnn(-c2c(F)cccc2F)c1=O)c1ccccc1C	60 to 250 nM

SMILES	IC50
CCN(C(=O)n1nnn(-c2c(F)cccc2F)c1=O)c1cccc(C)c1	< 60 nM
CN(C(=O)n1nnn(-c2c(F)cccc2F)c1=O)c1cccc(F)c1	60 to 250 nM
CN(C(=O)n1nnn(-c2c(F)cccc2F)c1=O)c1ccc(F)cc1	60 to 250 nM
O=C(N1CCCC1)n1nnn(-c2c(Cl)cccc2Cl)c1=O	> 10000 nM
O=C(O)c1ccc(N(CCc2cccnc2)C(=O)n2nnn(-c3c(Cl)cccc3Cl)c2=O)cc1	1000 to 10000 nM
O=CNc1ccc2c(c1)CCCN2C(=O)n1nnn(-c2c(F)cccc2F)c1=O	60 to 250 nM
CCN(C(=O)n1nnn(-c2c(Cl)cccc2Cl)c1=O)c1cccc(C#N)c1	60 to 250 nM
CCN(C(=O)n1nnn(-c2c(F)cccc2C#Cc2ccccc2)c1=O)c1ccccc1	60 to 250 nM
COc1ccccc1-n1nnn(C(=O)N(c2ccccc2)c2ccc(C(=O)O)cc2)c1=O	< 60 nM
CCN(C(=O)n1nnn(-c2ccccc2I)c1=O)C1CCCCC1	1000 to 10000 nM
CCN(C(=O)n1nnn(-c2c(F)cccc2F)c1=O)c1ccc(Br)cc1	< 60 nM
CCN(C(=O)n1nnn(-c2c(F)cccc2F)c1=O)c1ccc(C(=O)OCc2ccccc2)c(OC)c1	60 to 250 nM
CCN(C(=O)n1nnn(-c2ccccc2-c2ccccc2)c1=O)c1ccccc1F	60 to 250 nM
CCN(C(=O)n1nnn(-c2c(F)cccc2F)c1=O)c1ccc([N+](=O)[O-])cc1	60 to 250 nM
O=C(Nc1ccccc1)n1nnn(-c2ccccc2)c1=O	> 10000 nM
CCN(C(=O)n1nnn(-c2c(F)cccc2F)c1=O)c1ccc(Br)cc1F	60 to 250 nM
CCN(C(=O)n1nnn(-c2c(Cl)cccc2Cl)c1=O)C1CCCC(C(=O)NCC(N)=O)C1 (centres unmarked)	1000 to 10000 nM
CCN(C)C(=O)n1nnn(-c2ccccc2Cl)c1=O	> 10000 nM
CC(C)(C)OC(=O)N[C@H]1CCN(C(=O)n2nnn(-c3c(Cl)cccc3Cl)c2=O)C1	> 10000 nM
CCCCCCN(C(=O)n1nnn(-c2ccccc2OC)c1=O)c1cc(C(=O)OCc2ccccc2)ccc1OC	1000 to 10000 nM

— patent US9346769B2, “Tetrazolones as inhibitors of fatty acid synthase” (Infinity Pharmaceuticals, Inc., priority 2010, dated 2016)
